Assay results taken from ChEMBL document CHEMBL4834451, “Anti-chronic myeloid leukemia activity and quantitative structure-activity relationship of novel thiazole aminobenzamide derivatives” (Bioorg Med Chem Lett, 2021).

Assays:
[1] = tested on: K562; experiment: Antiproliferative activity against human K562 cells by MTS assay; assay type: functional, cell-based
[2] = Antiproliferative activity against imatinib-resistant human K562R cells by MTS assay; assay type: functional, cell-based
[3] = tested on: L02; experiment: Antiproliferative activity against human L02 cells by MTS assay; assay type: cell-based
[4] = tested on: BaF3; experiment: Antiproliferative activity against mouse BaF3 cells harbouring BCR-ABL T315I mutant by MTS assay; assay type: cell-based
[5] = K562, read-out: pIC50 (converted)

SMILES	IC50 [1] [µM]	IC50 ([2]; K562, read-out: IC50) [µM]	IC50 [2, 5] [µM]	IC50 [3] [µM]	IC50 [4] [µM]
Cc1sc(Nc2cccc(C(=O)NCC(=O)O)c2)nc1-c1ccc(Cl)cc1	60.5	71.5	71.4	> 100	
CCc1sc(Nc2cccc(C(=O)NCC(=O)O)c2)nc1-c1ccc(Cl)cc1	> 100	> 100		> 100	
CC(=O)[C@H](Cc1ccccc1)NC(=O)c1cccc(Nc2nc(-c3ccc(C(F)(F)F)cc3)c(C)s2)c1	28.7	8.47	8.47	> 100	19.8
CCc1sc(Nc2cccc(C(=O)N[C@@H](Cc3ccccc3)C(=O)O)c2)nc1-c1ccc(Cl)cc1	> 100	> 100		> 100	
Cc1sc(Nc2cccc(C(=O)N[C@@H](Cc3ccccc3)C(=O)O)c2)nc1-c1ccc(F)cc1	79.5	41.3	41.3	> 100	
CCc1sc(Nc2cccc(C(=O)NCC(=O)O)c2)nc1-c1ccccc1	> 100	> 100		> 100	
Cc1sc(Nc2cccc(C(=O)N[C@@H](Cc3ccccc3)C(=O)O)c2)nc1-c1ccc(Cl)cc1	51	48.1	48.1	> 100	
CC(=O)CNC(=O)c1cccc(Nc2nc(-c3ccc(C)cc3)c(C)s2)c1	> 100	50.2	50.2	> 100	
Cc1sc(Nc2cccc(C(=O)N[C@@H](Cc3ccccc3)C(=O)O)c2)nc1-c1ccc(C(F)(F)F)cc1	44.1	78.1	78.2	> 100	
Cc1ccc(-c2nc(Nc3cccc(C(=O)NCC(=O)O)c3)sc2C)cc1	> 100	> 100		> 100	
Cc1sc(Nc2cccc(C(=O)NCC(=O)O)c2)nc1-c1ccc(F)cc1	87.8	> 100		> 100	> 64
Cc1sc(Nc2cccc(C(=O)N[C@@H](Cc3ccccc3)C(=O)O)c2)nc1-c1ccc(O)cc1	68.9	62.9	63	> 100	
Cc1ccc(NC(=O)c2ccc(CN3CCN(C)CC3)cc2)cc1Nc1nccc(-c2cccnc2)n1 [IMATINIB]	4.63	> 100		> 100	
CCc1sc(Nc2cccc(C(=O)NCC(C)=O)c2)nc1-c1ccccc1	61.7	17.6	17.6	> 100	
CCc1sc(Nc2cccc(C(=O)NCC(C)=O)c2)nc1-c1ccc(Cl)cc1	> 100	> 100		> 100	
CC(=O)[C@H](Cc1ccccc1)NC(=O)c1cccc(Nc2nc(-c3ccc(F)cc3)c(C)s2)c1	28.6	12.8	12.9	> 100	19.1
Cc1sc(Nc2cccc(C(=O)NCC(=O)O)c2)nc1-c1ccc(C(F)(F)F)cc1	34.8	> 100		> 100	> 64

SMILES	IC50 [1] [µM]	IC50 ([2]; K562, read-out: IC50) [µM]	IC50 [2, 5] [µM]	IC50 [3] [µM]	IC50 [4] [µM]
CC(=O)CNC(=O)c1cccc(Nc2nc(-c3ccccc3)c(C)s2)c1	> 100	> 100		> 100	
Cc1sc(Nc2cccc(C(=O)NCC(=O)O)c2)nc1-c1ccccc1	57.6	61.7	61.7	> 100	
CCc1sc(Nc2cccc(C(=O)N[C@@H](Cc3ccccc3)C(C)=O)c2)nc1-c1ccc(Cl)cc1	> 100	15.9	15.9	> 100	
CC(=O)CNC(=O)c1cccc(Nc2nc(-c3ccc(O)cc3)c(C)s2)c1	66.3	68.3	68.2	> 100	> 64
CC(=O)[C@H](Cc1ccccc1)NC(=O)c1cccc(Nc2nc(-c3ccc(O)cc3)c(C)s2)c1	8.32	7.31	7.31	> 100	36.6
CC(=O)CNC(=O)c1cccc(Nc2nc(-c3ccc(Cl)cc3)c(C)s2)c1	> 100	> 100		> 100	
Cc1ccc(-c2nc(Nc3cccc(C(=O)N[C@@H](Cc4ccccc4)C(=O)O)c3)sc2C)cc1	48.8	63.4	63.4	> 100	
CC(=O)CNC(=O)c1cccc(Nc2nc(-c3ccc(C(F)(F)F)cc3)c(C)s2)c1	40.9	35.4	35.4	> 100	
CC(=O)[C@H](Cc1ccccc1)NC(=O)c1cccc(Nc2nc(-c3ccc(C)cc3)c(C)s2)c1	83.6	14.7	14.7	> 100	
CC(=O)[C@H](Cc1ccccc1)NC(=O)c1cccc(Nc2nc(-c3ccccc3)c(C)s2)c1	53.1	30.2	30.2	> 100	
Cc1sc(Nc2cccc(C(=O)N[C@@H](Cc3ccccc3)C(=O)O)c2)nc1-c1ccccc1	66	86.8	86.9	> 100	
CCc1sc(Nc2cccc(C(=O)N[C@@H](Cc3ccccc3)C(C)=O)c2)nc1-c1ccccc1	> 100	17.2	17.2	> 100	
Cc1sc(Nc2cccc(C(=O)NCC(=O)O)c2)nc1-c1ccc(O)cc1	71.8	> 100		> 100	
CC(=O)[C@H](Cc1ccccc1)NC(=O)c1cccc(Nc2nc(-c3ccc(Cl)cc3)c(C)s2)c1	51.4	11.3	11.4	> 100	
CC(=O)CNC(=O)c1cccc(Nc2nc(-c3ccc(F)cc3)c(C)s2)c1	> 100	> 100		> 100	
CCc1sc(Nc2cccc(C(=O)N[C@@H](Cc3ccccc3)C(=O)O)c2)nc1-c1ccccc1	93.3	78	78	> 100	
